Laboratory results reported in article PMC7582905, “Effect of Disulfide Cyclization of Ultrashort Cationic Lipopeptides on Antimicrobial Activity and Cytotoxicity” (International Journal of Molecular Sciences, 2020).
Converted amounts (≈) assume the structure as drawn.

What was measured:
keratinocytes = details: reported in the literature; ref [13]; cited from earlier work
From the text: However, an identical hemolysis pattern is consistent only with peptides L4, C4, L7, and C7. A common feature of these compounds is the presence of arginine residue in the second and third position, which differentiates them from the rest of compounds used in this study. Overall effect of disulfide cyclization on hemolysis seems to be dependent on arginine(s) position. In general, disulfide cyclization of lipopeptides results in the reduced cytotoxicity a ...

[1] = system: Staphylococcus aureus ATCC 25923; details: values marked *: performed by the group in the previous study; ref [29]; cited from earlier work
From the text: Table 3 Antibiofilm activity of lipopeptides. | column: MBEC (μg/mL) / S. aureus

[2] = system: Staphylococcus aureus ATCC 25923; details: values marked *: performed by the group in the previous study; ref [29]; cited from earlier work; remark: listed apart in the source
From the text: Table 2 Antimicrobial activity of lipopeptides. | column: MIC (μg/mL) / S. aureus

[3] = system: Candida tropicalis PCM 2709-FY; assay type: cell-based; details: PCM 2709-FY, 24 h
Outline: (§1)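 CLSI microdilution. Inocula: bacteria 5 × 10^5 CFU/mL (MHB), yeasts 2 × 10^3 CFU/mL (RPMI-1640, 2% D-glucose). Lipopeptides 0.5–256 μg/mL; 37 °C, 18 h/24 h resp.; visual MIC, n=3.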

[4] = system: Staphylococcus epidermidis ATCC 14990; assay type: cell-based; details: ATCC 14990, 18 h
Outline: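 MIC = lowest lipopeptide concentration (range 0.5–256 μg/mL) with no noticeable growth, scored by eye. Bacteria tested in MHB at 5 × 10^5 CFU/mL for 18 h; Candida in RPMI-1640 + 2% D-glucose at 2 × 10^3 CFU/mL for 24 h; both at 37 °C.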

[5] = system: Candida lipolytica PCM 2680-FY; assay type: cell-based; details: 24 h
Outline: as §1

[6] = system: Escherichia coli ATCC 25922; assay type: cell-based; details: ATCC 25922, 18 h
Outline: as §1

[7] = system: Candida glabrata ATCC 15126; assay type: cell-based; details: ATCC 15126, 24 h
Outline: as §1

CCCCCCCCCCCCCCCC(=O)N[C@@H](CCCCN)C(=O)N[C@@H](CCCCN)C(=O)N[C@@H](CCCCN)C(N)=O [L1, C16-KKK-NH2]
toxicity against keratinocytes (keratinocytes): 3.2 µg/mL | MBEC S. aureus [1]: 64 * μg/mL | MIC S. aureus [2]: 32 * μg/mL | MIC C. tropicalis [3]: 8 µg/mL (≈ 12.5 µM) | MIC S. epidermidis [4]: 8 µg/mL (≈ 12.5 µM) | MIC C. lipolytica [5]: 16 µg/mL (≈ 25 µM) | MIC E. coli [6]: 16 µg/mL (≈ 25 µM) | MIC C. glabrata [7]: 32 µg/mL (≈ 50 µM)
